What all share (experiment): relative viability (nuclei count vs DMSO), 5 days (fraction); higher = more cells survive
Compound in assay [1]: COCC[n+]1c2c(n(Cc3cnccn3)c1C)C(=O)c1ccccc1C2=O [YM155] + Nc1ncn([C@H]2C[C@H](O)[C@@H](CO)O2)c(=O)n1 [Decitabine] (partner 2 µM)
An outline of the steps:
(§1)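 Relative viability is defined as nuclei in treated wells over nuclei in vehicle wells. Duplicate plates were run and medians reported. Lung cancer cell lines in 1536-well plates were dosed by pin tool one day after seeding, with one drug or with a fixed anchor-drug dose plus five library-drug doses (not always all listed) in √10 steps, and nuclei were counted after 5 days.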

Compound in assay [2]: COCC[n+]1c2c(n(Cc3cnccn3)c1C)C(=O)c1ccccc1C2=O [YM155] + C[C@]1(O)C[C@@H](c2nc(-c3ccc4ccc(-c5ccccc5)nc4c3)c3c(N)nccn32)C1 [Linsitinib] (partner 1 µM)
An outline of the steps: as §1

Compound in assay [3]: COCC[n+]1c2c(n(Cc3cnccn3)c1C)C(=O)c1ccccc1C2=O [YM155] + CC(=O)Nc1cccc(-n2c(=O)n(C3CC3)c(=O)c3c(Nc4ccc(I)cc4F)n(C)c(=O)c(C)c32)c1 [Trametinib] (partner 0.02 µM)
An outline of the steps:
as §1

Compound in assay [4]: CC(C)(C)c1cc(NC(=O)Nc2ccc(-c3cn4c(n3)sc3cc(OCCN5CCOCC5)ccc34)cc2)no1 [Quizartinib] + CCNC(=O)c1noc(-c2cc(C(C)C)c(O)cc2O)c1-c1ccc(CN2CCOCC2)cc1 [Luminespib] (partner 0.01 µM)
An outline of the steps:
as §1

This passage reports relative viability results from the supplement of paper PMC10307832.

With HCC-366, the relative viability in assay [1] (first compound 0.002 µM) amounted to 0.358; in assay [1] (first compound 0.006325 µM), 0.366; in assay [1] (first compound 0.02 µM) it was 0.345; in assay [1] (first compound 0.06325 µM) it was 0.316; in assay [2] (first compound 0.002 µM), 0.683; in assay [2] (first compound 0.006325 µM), 0.61. The relative viability in assay [2] (first compound 0.02 µM) is 0.659; in assay [2] (first compound 0.06325 µM), 0.676; in assay [3] (first compound 0.002 µM), 0.353; in assay [3] (first compound 0.006325 µM), 0.421; in assay [3] (first compound 0.02 µM) it was 0.371; in assay [3] (first compound 0.06325 µM), 0.353.
Take HCC-827: the relative viability turned out to be 0.352 in assay [1] (first compound 0.002 µM); 0.408 in assay [1] (first compound 0.006325 µM); 0.299 in assay [1] (first compound 0.02 µM); 0.354 in assay [1] (first compound 0.06325 µM); 0.954 in assay [2] (first compound 0.002 µM); 1.01 in assay [2] (first compound 0.006325 µM). In addition, the relative viability in assay [2] (first compound 0.02 µM) worked out at 0.928; in assay [2] (first compound 0.06325 µM) it was 0.941; in assay [3] (first compound 0.002 µM) it was 0.528; in assay [3] (first compound 0.006325 µM), 0.531; in assay [3] (first compound 0.02 µM), 0.605; in assay [3] (first compound 0.06325 µM), 0.628. The relative viability came to 0.647 in assay [4] (first compound 0.001 µM); 0.487 in assay [4] (first compound 0.003162 µM); 0.606 in assay [4] (first compound 0.01 µM); 0.401 in assay [4] (first compound 0.03162 µM); 0.738 in assay [4] (first compound 0.1 µM).
As to HOP-62, the relative viability in assay [1] (first compound 0.002 µM) came to 0.221; in assay [1] (first compound 0.006325 µM), 0.242; in assay [1] (first compound 0.02 µM), 0.235; in assay [1] (first compound 0.06325 µM), 0.214; in assay [2] (first compound 0.002 µM), 0.906; in assay [2] (first compound 0.006325 µM), 1.02. Moreover, the relative viability in assay [2] (first compound 0.02 µM) was 1.32; in assay [2] (first compound 0.06325 µM) it was 0.92; in assay [3] (first compound 0.002 µM), 0.389; in assay [3] (first compound 0.006325 µM), 0.389; in assay [3] (first compound 0.02 µM), 0.419; in assay [3] (first compound 0.06325 µM) it was 0.424. Further, the relative viability in assay [4] (first compound 0.001 µM) was 0.914; in assay [4] (first compound 0.003162 µM), 0.843; in assay [4] (first compound 0.01 µM) it was 1.04; in assay [4] (first compound 0.03162 µM), 0.933; in assay [4] (first compound 0.1 µM) it was 0.9.
IA-LM: the relative viability stood at 0.392 in assay [2] (first compound 0.002 µM), 0.697 in assay [2] (first compound 0.006325 µM), 0.745 in assay [2] (first compound 0.02 µM) and 0.373 in assay [2] (first compound 0.06325 µM).
Consider LC-2-ad, for which the relative viability in assay [1] (first compound 0.002 µM) stood at 0.773; in assay [1] (first compound 0.006325 µM) it was 0.788; in assay [1] (first compound 0.02 µM), 0.742; in assay [1] (first compound 0.06325 µM), 0.706; in assay [2] (first compound 0.002 µM), 0.806; in assay [2] (first compound 0.006325 µM), 0.957. Moreover, the relative viability in assay [2] (first compound 0.02 µM) stood at 0.814; in assay [2] (first compound 0.06325 µM) it was 0.753; in assay [3] (first compound 0.002 µM) it was 0.928; in assay [3] (first compound 0.006325 µM), 0.925; in assay [3] (first compound 0.02 µM), 0.866; in assay [3] (first compound 0.06325 µM), 0.87. Moreover, the relative viability in assay [4] (first compound 0.001 µM) amounted to 0.938; in assay [4] (first compound 0.003162 µM), 1.07; in assay [4] (first compound 0.01 µM) it was 0.945; in assay [4] (first compound 0.1 µM) it was 0.985.
As for LCLC-97TM1, the relative viability amounted to 0.178 in assay [1] (first compound 0.006325 µM); 0.202 in assay [1] (first compound 0.02 µM); 0.254 in assay [1] (first compound 0.06325 µM); 0.2 in assay [2] (first compound 0.002 µM); 0.183 in assay [2] (first compound 0.006325 µM); 0.161 in assay [2] (first compound 0.02 µM). Further, the relative viability came out at 0.212 in assay [2] (first compound 0.06325 µM); 0.178 in assay [3] (first compound 0.006325 µM); 0.23 in assay [3] (first compound 0.02 µM); 0.21 in assay [3] (first compound 0.06325 µM); 0.7 in assay [4] (first compound 0.001 µM); 0.6 in assay [4] (first compound 0.003162 µM). Further, the relative viability turned out to be 0.892 in assay [4] (first compound 0.01 µM), 0.686 in assay [4] (first compound 0.03162 µM) and 0.759 in assay [4] (first compound 0.1 µM).
LCLC-103H: the relative viability in assay [1] (first compound 0.002 µM) is 0.747; in assay [1] (first compound 0.006325 µM), 0.735; in assay [1] (first compound 0.02 µM), 0.731; in assay [1] (first compound 0.06325 µM), 0.716; in assay [2] (first compound 0.002 µM), 0.999; in assay [2] (first compound 0.006325 µM), 0.974. Moreover, the relative viability in assay [2] (first compound 0.02 µM) is 1.16; in assay [2] (first compound 0.06325 µM), 1.16; in assay [3] (first compound 0.002 µM) it was 0.647; in assay [3] (first compound 0.006325 µM) it was 0.637; in assay [3] (first compound 0.02 µM), 0.674; in assay [3] (first compound 0.06325 µM) it was 0.716. For the same cell line, the relative viability was 1 in assay [4] (first compound 0.001 µM); 0.896 in assay [4] (first compound 0.003162 µM); 0.989 in assay [4] (first compound 0.01 µM); 1.04 in assay [4] (first compound 0.03162 µM); 0.961 in assay [4] (first compound 0.1 µM).
In the case of LK-2, the relative viability worked out at 0.29 in assay [1] (first compound 0.002 µM); 0.14 in assay [1] (first compound 0.006325 µM); 0.341 in assay [1] (first compound 0.02 µM); 0.362 in assay [1] (first compound 0.06325 µM); 0.425 in assay [2] (first compound 0.002 µM); 0.764 in assay [2] (first compound 0.006325 µM). For the same cell line, the relative viability in assay [2] (first compound 0.02 µM) stood at 0.491; in assay [2] (first compound 0.06325 µM), 0.796; in assay [3] (first compound 0.002 µM), 0.631; in assay [3] (first compound 0.006325 µM) it was 0.717; in assay [3] (first compound 0.02 µM) it was 0.827; in assay [3] (first compound 0.06325 µM), 0.851. In addition, the relative viability in assay [4] (first compound 0.001 µM) is 0.162; in assay [4] (first compound 0.01 µM), 0.193; in assay [4] (first compound 0.03162 µM), 0.205; in assay [4] (first compound 0.1 µM) it was 0.22.
Regarding LOU-NH91, the relative viability in assay [1] (first compound 0.002 µM) came to 0.766; in assay [1] (first compound 0.006325 µM), 0.812; in assay [1] (first compound 0.02 µM), 0.852; in assay [1] (first compound 0.06325 µM) it was 0.831; in assay [2] (first compound 0.002 µM), 1.05; in assay [2] (first compound 0.006325 µM), 0.879. In addition, the relative viability in assay [2] (first compound 0.02 µM) came to 0.97; in assay [2] (first compound 0.06325 µM), 0.978; in assay [3] (first compound 0.002 µM), 0.8; in assay [3] (first compound 0.006325 µM) it was 0.747; in assay [3] (first compound 0.02 µM), 0.807; in assay [3] (first compound 0.06325 µM), 0.788. The relative viability turned out to be 0.317 in assay [4] (first compound 0.001 µM); 0.355 in assay [4] (first compound 0.003162 µM); 0.292 in assay [4] (first compound 0.01 µM); 0.362 in assay [4] (first compound 0.03162 µM); 0.343 in assay [4] (first compound 0.1 µM).
